Reference: US10144947B2, “Method for detecting, identifying and enumerating micro-organisms in a porous support dry-impregnated with a dehydrated reaction medium” (BIOMÉRIEUX, priority 2014, dated 2018)
Read-outs that look alike come from different tables or passages of the source.

Key:
[1] = test system: Proteus vulgaris API 8803017; assay: MIC of ciprofloxacin for the strain tested; format: cell-based; details: API8803017
[2] = test system: Pseudomonas aeruginosa API 9410075; assay: MIC of ciprofloxacin for the strain tested; format: cell-based; details: P. aeruginosa API 9410075; listed as Ci
[3] = test system: Proteus mirabilis API 8803080; assay: MIC of ciprofloxacin for the strain tested; format: cell-based; details: listed as Ci
[4] = test system: Pseudomonas aeruginosa API 9405063; assay: MIC of ciprofloxacin for the strain tested; format: cell-based; details: P. aeruginosa API 9405063; listed as Ci
[5] = test system: Pseudomonas aeruginosa API 9405061; assay: MIC of ciprofloxacin for the strain tested; format: cell-based; details: P. aeruginosa API 9405061
[6] = test system: Pseudomonas aeruginosa API 9410075; assay: Growth on MH2 or ChromID CPS3 with 1.5 mg/l ciprofloxacin, agar medium or impregnated porous support; format: cell-based; design: key to growth on MH2 Agar medium + 1.5 mg/l Ci / growth on Impregnation of porous support with MH2 + 1.5 mg/l Ci / growth on ChromID CPS3 Agar medium + 1.5 mg/l Ci / growth on Impregnation of porous support with ChromID CPS3 + 1.5 mg/l Ci: ++: grow; −−: do not grow
Description: (§1) To produce the agar media, a liter of water is added to the test specimen of the dry medium, i.e. 38.3 g for ChromID CPS3 and 41.57 g for the Muller Hinton 2 medium. The dry medium is then dissolved with magnetic stirring, brought to the boil then sterilized by autoclaving. […]. The whole thing is then mixed together in a Turbula®. The porous supports are then impregnated with the culture media powders as described above and sterilized by gamma radiation between 10 and 17 kGy.

[7] = test system: Proteus mirabilis API 8803080; assay: as above; format: cell-based; design: key to growth on MH2 Agar medium + 1.5 mg/l Ci / growth on Impregnation of porous support with MH2 + 1.5 mg/l Ci / growth on ChromID CPS3 Agar medium + 1.5 mg/l Ci / growth on Impregnation of porous support with ChromID CPS3 + 1.5 mg/l Ci: ++: grow; −−: do not grow
Description: as §1

[8] = test system: Proteus mirabilis API 8803099; assay: as above; format: cell-based; design: key to growth on MH2 Agar medium + 1.5 mg/l Ci / growth on Impregnation of porous support with MH2 + 1.5 mg/l Ci / growth on ChromID CPS3 Agar medium + 1.5 mg/l Ci / growth on Impregnation of porous support with ChromID CPS3 + 1.5 mg/l Ci: ++: grow; −−: do not grow
Description: as §1

[9] = test system: Pseudomonas aeruginosa API 9405061; assay: as above; format: cell-based; design: key to growth on MH2 Agar medium + 1.5 mg/l Ci / growth on Impregnation of porous support with MH2 + 1.5 mg/l Ci / growth on ChromID CPS3 Agar medium + 1.5 mg/l Ci / growth on Impregnation of porous support with ChromID CPS3 + 1.5 mg/l Ci: ++: grow; −−: do not grow
Description: as §1

[10] = test system: Pseudomonas aeruginosa API 7509005; assay: as above; format: cell-based; design: key to growth on MH2 Agar medium + 1.5 mg/l Ci / growth on Impregnation of porous support with MH2 + 1.5 mg/l Ci / growth on ChromID CPS3 Agar medium + 1.5 mg/l Ci / growth on Impregnation of porous support with ChromID CPS3 + 1.5 mg/l Ci: ++: grow; −−: do not grow
Description: as §1

[11] = test system: Pseudomonas aeruginosa API 9405063; assay: as above; format: cell-based; design: key to growth on MH2 Agar medium + 1.5 mg/l Ci / growth on Impregnation of porous support with MH2 + 1.5 mg/l Ci / growth on ChromID CPS3 Agar medium + 1.5 mg/l Ci / growth on Impregnation of porous support with ChromID CPS3 + 1.5 mg/l Ci: ++: grow; −−: do not grow
Description: as §1

[12] = test system: Proteus mirabilis API 9406037; assay: as above; format: cell-based; design: key to growth on MH2 Agar medium + 1.5 mg/l Ci / growth on Impregnation of porous support with MH2 + 1.5 mg/l Ci / growth on ChromID CPS3 Agar medium + 1.5 mg/l Ci / growth on Impregnation of porous support with ChromID CPS3 + 1.5 mg/l Ci: ++: grow; −−: do not grow
Description: as §1

[13] = test system: Proteus vulgaris API 8803017; assay: as above; format: cell-based; design: key to growth on MH2 Agar medium + 1.5 mg/l Ci / growth on Impregnation of porous support with MH2 + 1.5 mg/l Ci / growth on ChromID CPS3 Agar medium + 1.5 mg/l Ci / growth on Impregnation of porous support with ChromID CPS3 + 1.5 mg/l Ci: ++: grow; −−: do not grow
Description: as §1

[14] = test system: Proteus mirabilis API 9406037; assay: MIC of ciprofloxacin for the strain tested; format: cell-based; details: listed as Ci
[15] = test system: Pseudomonas aeruginosa API 7509005; assay: MIC of ciprofloxacin for the strain tested; format: cell-based; details: P. aeruginosa API 7509005; listed as Ci
[16] = test system: Proteus mirabilis API 8803099; assay: MIC of ciprofloxacin for the strain tested; format: cell-based
E. coli ATCC 25922 [17] = assay: MIC of imipenem for the strain used; format: cell-based; details: Escherichia coli, ATCC25922, as stated in the conclusion
[18] = test system: Pseudomonas aeruginosa ATCC 27853; assay: MIC of imipenem for the strain used; format: cell-based; details: ATCC27853, Pseudomonas aeruginosa ATCC 27853, as stated in the conclusion
[19] = test system: Pseudomonas aeruginosa ATCC 27853; assay: Growth (colony count) on ChromID CPS3 with 1 mg/l imipenem, agar medium or impregnated porous support; format: cell-based; details: for CFU/ml, ChromID CPS3 with 1 mg/l imipenem: starting concentration 10^3 CFU/ml; for CFU, ChromID CPS3 with 1 mg/l imipenem: starting concentration 10^5 CFU/ml
Description: (§2) To produce the agar media, a liter of water is added to the test specimen of the dry medium, i.e. 38.3 g for ChromID CPS3. The dry medium is then dissolved with stirring, brought to the boil then sterilized by autoclaving. After cooling the agar medium to 55° C., the imipenem sterilized by filtration is added at a concentration of 1 mg/l. To carry out impregnation according to the present invention of the dry medium Chrom ID CPS3, a test specimen of the dry medium corresponding to the manufacture of one liter of medium is taken, i.e. 26 g, to which test specimen xanthan (20 g) and imipenem […] are added. All the constituents are then mixed together in a Turbula®. The porous supports are then impregnated by the culture media powder produced as described above and sterilized by gamma radiation between 10 and 17 kGy.

E. coli ATCC 25922 [20] = assay: as above; format: cell-based, Escherichia coli
Description: as §2

[21] = ChromID CPS3 agar medium, 1.5 mg/l ciprofloxacin
[22] = MH2 agar medium, 1.5 mg/l ciprofloxacin
[23] = all the agar or impregnated media, ciprofloxacin 1.5 g/1 [sic]
[24] = porous support impregnated with ChromID CPS3, 1.5 mg/l ciprofloxacin
[25] = porous support impregnated with MH2, 1.5 mg/l ciprofloxacin
[26] = MH2 and ChromID CPS3, agar and porous support, 1.5 mg/l ciprofloxacin
[27] = porous support according to the invention

O=C(O)c1cn(C2CC2)c2cc(N3CCNCC3)c(F)cc2c1=O [ciprofloxacin, Ciprofloxacin]
0.25 µg/mL: MIC ([5]; listed as Ci) | MIC [15]
0.38 to 0.5 µg/mL: MIC [3]
less than 1.5 mg/l: MIC [5] | MIC [16]
0.032 µg/mL: MIC ([16]; listed as Ci)
8 to 12 µg/mL: MIC [14]
−−: growth on ChromID CPS3 Agar medium + 1.5 mg/l Ci [7, 21] | growth on MH2 Agar medium + 1.5 mg/l Ci [7, 22] | growth on Impregnation of porous support with ChromID CPS3 + 1.5 mg/l Ci [7, 24] | growth on Impregnation of porous support with MH2 + 1.5 mg/l Ci [7, 25] | growth on ChromID CPS3 Agar medium + 1.5 mg/l Ci [8, 21] | growth on MH2 Agar medium + 1.5 mg/l Ci [8, 22] | growth on Impregnation of porous support with ChromID CPS3 + 1.5 mg/l Ci [8, 24] | growth on Impregnation of porous support with MH2 + 1.5 mg/l Ci [8, 25] | growth on ChromID CPS3 Agar medium + 1.5 mg/l Ci [9, 21] | growth on MH2 Agar medium + 1.5 mg/l Ci [9, 22] | growth on Impregnation of porous support with ChromID CPS3 + 1.5 mg/l Ci [9, 24] | growth on Impregnation of porous support with MH2 + 1.5 mg/l Ci [9, 25] | growth on ChromID CPS3 Agar medium + 1.5 mg/l Ci [10, 21] | growth on MH2 Agar medium + 1.5 mg/l Ci [10, 22] | growth on Impregnation of porous support with ChromID CPS3 + 1.5 mg/l Ci [10, 24] | growth on Impregnation of porous support with MH2 + 1.5 mg/l Ci [10, 25] | growth on ChromID CPS3 Agar medium + 1.5 mg/l Ci [13, 21] | growth on MH2 Agar medium + 1.5 mg/l Ci [13, 22] | growth on Impregnation of porous support with ChromID CPS3 + 1.5 mg/l Ci [13, 24] | growth on Impregnation of porous support with MH2 + 1.5 mg/l Ci [13, 25]
< 1.5 µg/mL: MIC [1]
6 to 8 µg/mL: MIC [4]
++: growth on ChromID CPS3 Agar medium + 1.5 mg/l Ci [6, 21] | growth on MH2 Agar medium + 1.5 mg/l Ci [6, 22] | growth on Impregnation of porous support with ChromID CPS3 + 1.5 mg/l Ci [6, 24] | growth on Impregnation of porous support with MH2 + 1.5 mg/l Ci [6, 25] | growth on ChromID CPS3 Agar medium + 1.5 mg/l Ci [11, 21] | growth on MH2 Agar medium + 1.5 mg/l Ci [11, 22] | growth on Impregnation of porous support with ChromID CPS3 + 1.5 mg/l Ci [11, 24] | growth on Impregnation of porous support with MH2 + 1.5 mg/l Ci [11, 25] | growth on ChromID CPS3 Agar medium + 1.5 mg/l Ci [12, 21] | growth on MH2 Agar medium + 1.5 mg/l Ci [12, 22] | growth on Impregnation of porous support with ChromID CPS3 + 1.5 mg/l Ci [12, 24] | growth on Impregnation of porous support with MH2 + 1.5 mg/l Ci [12, 25]
grow: growth on agar media and impregnated porous supports with ciprofloxacin (in words) [6, 23] | growth on agar media and impregnated porous supports with ciprofloxacin (in words) [11, 23] | growth on agar media and impregnated porous supports with ciprofloxacin (in words) [12, 23]
>32 µg/mL: MIC [2]
do not grow: growth on agar media and impregnated porous supports with ciprofloxacin (in words) [7, 26] | growth on agar media and impregnated porous supports with ciprofloxacin (in words) [8, 26] | growth on agar media and impregnated porous supports with ciprofloxacin (in words) [9, 26] | growth on agar media and impregnated porous supports with ciprofloxacin (in words) [10, 26] | growth on agar media and impregnated porous supports with ciprofloxacin (in words) [13, 26]

C[C@@H](O)[C@H]1C(=O)N2C(C(=O)O)=C(SCCN=CN)C[C@H]12 [imipenem]
453 CFU/ml: CFU/ml, ChromID CPS3 with 1 mg/l imipenem [19, 27]
0.12 µg/mL: MIC (E. coli ATCC 25922 [17])
0 CFU/ml: CFU/ml, ChromID CPS3 with 1 mg/l imipenem (E. coli ATCC 25922 [20]; ChromID CPS3 agar, starting concentration 10^3 CFU/ml) | CFU/ml, ChromID CPS3 with 1 mg/l imipenem (E. coli ATCC 25922 [20]; ChromID CPS3 agar, starting concentration 10^5 CFU/ml) | CFU/ml, ChromID CPS3 with 1 mg/l imipenem (E. coli ATCC 25922 [20]; porous support according to the invention, starting concentration 10^3 CFU/ml) | CFU/ml, ChromID CPS3 with 1 mg/l imipenem (E. coli ATCC 25922 [20]; porous support according to the invention, starting concentration 10^5 CFU/ml)
2 µg/mL: MIC [18]
≥300 colonies: CFU, ChromID CPS3 with 1 mg/l imipenem ([19]; ChromID CPS3 agar) | CFU, ChromID CPS3 with 1 mg/l imipenem [19, 27]
677 CFU/ml: CFU/ml, ChromID CPS3 with 1 mg/l imipenem ([19]; ChromID CPS3 agar)
